Two molecules from patent publication US5599559A, “Calcium channel blocking polypeptide from agelenopsis aperta and therapeutic methods employing it” (priority 1995, dated 1997) can be followed below.

The test system of the assay is calcium channels. It counts as cell-based, rats. As to conditions: read-out: IC50 for blocking calcium channels, pH 7.4.

Like-named read-outs stand apart in the source and are kept apart here. Bounds are passed on as bounds.

Take `COc1ccc(CCN(C)CCCC(C#N)(c2ccc(OC)c(OC)c2)C(C)C)cc1OC` (centres unmarked) [Verapamil]: the 50% inhibitory concentration (IC50) (in general, the concentration at which inhibition is half-maximal) was 4.8 µM.

“H2 N-Glu-Ala-Cys-Ala-Gly-Ala-Tyr-Lys-Ser-Cys-Asp-Lys-Val-Lys-Cys-Cys-His-Asp- Arg-Arg-Cys-Arg-Cys-Asn-lle-Ala-Met-Asp-Asn-Cys-Val-Cys-Lys-Leu-Phe-Tyr-Cys-Glu-Leu-Phe-Gly-Thr-Cys-Asp-Arg-Leu-Lys-Pro [peptide J2]”: where the note is “cerebellar granule cells from 8 day old rats, fura2 fluorescence, 37° C.”, the half-inhibitory concentration (IC50) was less than 0.2 µM.
